Assay results from patent US6380384B1, “1,2-dihydro-2-oxoquinoline derivatives” (Taisho Pharmaceutical Co., Ltd., priority 1997, dated 2002).

Target: T1, mitochondrial diazepam binding inhibitor receptor (MDR) (Rattus norvegicus, UniProt P16257)
T1 construct: Crude mitochondria fractions prepared from rat cerebral cortex were used as a receptor sample; from tissue; host or cells: rat cerebral cortex, crude mitochondria fraction
Test: MDR receptor binding assay ([3H]PK11195 displacement, crude mitochondria fractions from rat cerebral cortex)
Settings: 50% inhibition of [3H]PK11195 (2 nM) binding; rat cerebral cortex crude mitochondria fraction, 4° C., 90 minutes
Experimental: Experiment [MDR Receptor Binding Assay]
Crude mitochondria fractions prepared from rat cerebral cortex were used as a receptor sample, and [^3H]PK11195 was used as a [^3H]-labeled ligand.
A binding assay using the [^3H]-labeled ligand was carried out according to the following method as described in Journal of Pharmacology and Experimental Therapeutics, 262, 971(1992).
Preparation of Receptor Sample: Rat cerebral cortex was homogenized using a Teflon-coated homogenizer in a 10 mM HEPES buffer (pH 7.4) containing 0.32 M sucrose in ten volumes of the wet weight. The homogenate was centrifuged at 900×g for 10 minutes, and the resulting supernatant was centrifuged at 9,000×g for 10 minutes. The precipitate was suspended in a HEPES buffer to give a protein concentration of 1 mg/ml, and centrifuged at 12,000×g for 10 minutes. The resulting precipitate was suspended in a 50 mM HEPES buffer (pH 7.4) to give a crude mitochondria fraction.
MDR Binding Assay:. Mitochondria sample (1.0 mg protein/ml), [^3H]PK11195 (2 nM) and the test drug were reacted at 4° C. for 90 minutes.
After completion of the reaction, the reaction mixture was filtered with suction through a glass filter (GF/B) treated with 0.3% polyethyleneimine, and the radioactivity on the filter was measured by a liquid scintillation spectrometer.
The binding at the reaction in the presence of 10 μM PK11195 was defined as non-specific binding of [^3H]PK11195, and the difference between total binding and non-specific binding was defined as specific binding.

T1 sequence (P16257 whole entry): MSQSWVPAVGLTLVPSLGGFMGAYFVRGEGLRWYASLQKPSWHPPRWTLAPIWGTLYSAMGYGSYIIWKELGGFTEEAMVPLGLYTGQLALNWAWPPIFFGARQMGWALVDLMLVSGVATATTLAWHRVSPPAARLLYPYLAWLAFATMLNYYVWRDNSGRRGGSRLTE

Row | Structure (SMILES) | IC50 [nM]
1 | CCCCCCN(CCCCCC)C(=O)c1cc2ccccc2n(Cc2ccncc2)c1=O [Compound 20] | 0.192
2 | CCCCCCN(CCCCCC)C(=O)c1cc2ccccc2n(Cc2ccccc2)c1=O [Compound 05] | 0.159
3 | CCCCCCN(CCCCCC)C(=O)c1cc2ccccc2n(Cc2cccnc2)c1=O [Compound 19, N,N-dihexyl-1-(3-picolyl)-1,2-dihydro-2-oxoquinoline-3-carboxamide] | 0.368
4 | CCCCCCN(CCCCCC)C(=O)c1cc2ccc(Cl)cc2n(Cc2ccccc2)c1=O [Compound 23] | 0.132
5 | CCCN(CCC)C(=O)c1cc2ccccc2n(Cc2ccccc2)c1=O [Compound 04] | 1.71
6 | CCCCCCN(CCCCCC)C(=O)c1cc2ccccc2n(Cc2ccccn2)c1=O [Compound 18] | 0.404
7 | CCCCCCN(CCCCCC)C(=O)c1cc2ccccc2n(CCc2ccccc2)c1=O [Compound 21] | 6.58
8 | CCCCCCCCCCN(CCCCCCCCCC)C(=O)c1cc2ccccc2n(Cc2ccccc2)c1=O [Compound 06] | 53.4
